Tested on: iPSCs
Experiment: Mesoderm induction of iPSCs: FOXF1 and IRX3 expression
Assay type: cell-based, human
Conditions: SB added to in-house mesoderm induction medium
Description: PSCs were cultured in monolayer on hESC-qualified Matrigel-coated plates (Corning) and expanded in NutriStem hPSC XF Medium (Stemgent) and passaged with ReLeSR passaging reagent (STEMCELL Technologies). For mesoderm induction (Day 0), PSC colonies was dissociated with TrypLE cell dissociation reagent (Thermofisher) and plated on Matrigel coated plates in NutriStem medium containing 10 μM Y-27632 Rho kinase inhibitor (Calbiochem). The following day (Day 1), NutriStem medium was replaced with STEMdiff Mesoderm Induction Medium (MIM) (STEMCELL Technologies) and changed each day until day 5.
Note: Only use Y-27632 stock solutions that have been resuspended in DMSO. […] Conduct Mesoderm induction of iPSC in a laminar flow cabinet. • 3. Expand cells in NutriStem hPSC XF Medium overnight and change 100% of the medium without Y-27632 every 24 hours in a laminar flow cabinet for cell culture. When changing media, tilt plate up and allow media to pool at the bottom of wells. Aspirate the pooled medium without touching the surface of the plate. Replace with medium warmed to room temperature by pipetting 2 ml down the side of the wells. Cell Passaging • 1. Expand cell colonies until they have reached 70-80% confluence in high-density areas of the wells. High-density accumulation can occur along the edges of the well as well as the middle. Cells permitted to reach high density will lose their potential for differentiation after multiple passages. • 2. Prior to cell passage, warm cell wash buffer and NutriStem hPSC XF Medium to room temperature. Conduct cell passage in a laminar flow cabinet. • 3. Aspirate NutriStem hPSC XF Medium from wells with vacuum aspirator and wash with PBS without calcium or magnesium. Remove PBS and add 1 ml of ReLeSR reagent to side of well. Agitate plate to allow ReLeSR reagent to spread evenly on the surface. • 4. Aspirate ReLeSR reagent with vacuum aspirator after 30 seconds, which will leave behind a thin film of liquid. Incubate plate at 37° C. for 5-8 minutes undisturbed. • 5. Add fresh NutriStem hPSC XF Medium to wells and gently remove the cell colonies from the plate. Check that most cells have been dislodged from the plate surface with a light microscope. If not, rewash with more medium as needed. • 6. Transfer cell colony suspension in NutriStem hPSC XF Medium to Matrigel coated culture plates for further expansion (see Cell plating and culture above). Generation of iPSC Derived MSCs Mesoderm Induction of iPSC • 1. When iPSCs have reached 70-80% confluence, they will need to be passaged as single cells rather than colonies prior to mesoderm induction (day 0). • 2. Prepare for passage by warming cell wash buffer and NutriStem hPSC XF medium to room temperature and add Y-27632 Rho kinase inhibitor to medium at a final concentration of 10 μM. […]

SMILES: NC(=O)c1ccc(-c2nc(-c3ccc4c(c3)OCO4)c(-c3ccccn3)[nH]2)cc1 [SB, SB431542]
- FOXF1 expression: loss
- IRX3 expression: increased expression
